From US9796672B2, “Isoindoline compositions and methods for treating neurodegenerative disease” (Cognition Therapeutics, Inc., priority 2014, dated 2017)

Test system: not listed separately
Experiment: Mouse liver microsome (MLM) stability
Type: in vitro ADME
Settings: mouse, microsomes
Protocol: A first pharmacokinetic study was performed in microsomes of mice mouse liver microsomes, MLM) by a commercial contract research organization. The studies were performed according to Obach, R. S et al. (1997) J. Pharmacol. Exp. Ther., 283: 46-58, which is incorporated herein by reference.

Mouse liver microsomes, MLM t½ | SMILES
29 min | COc1cc(CCC(C)(C)N2Cc3cccc(F)c3C2)ccc1OCCO [compound 44]
5 min | COC[C@H](CCc1ccc(Cl)c(Cl)c1)N1Cc2ccc(F)cc2C1 [compound 46]
66 min | COc1cc(CC[C@@H](C)N2Cc3cccc(F)c3C2)ccc1OCCO [compound 51]
34 min | CC(C)(CCc1ccc(O)c(OC(F)(F)F)c1)N1Cc2c(F)ccc(F)c2C1 [compound 55]
8 min | CN(C)C(=O)c1cccc2c1CN(C(C)(C)CCc1ccc(O)c(OC(C)(C)C)c1)C2 [compound 59]
31 min | C[C@H](CCc1ccc(O)c(OC(C)(C)C)c1)N1Cc2ccc(S(C)(=O)=O)cc2C1 [compound 63]
52 min | COc1cc(CCC(C)(C)N2Cc3cccc(S(C)(=O)=O)c3C2)ccc1O [compound 64]
41 min | COc1cc(CC[C@@H](C)N2Cc3cccc(S(C)(=O)=O)c3C2)ccc1O [compound 65]
10 min | CC(C)(C)Oc1cc(CCC(C)(C)N2Cc3cccc(S(C)(=O)=O)c3C2)ccc1O [compound 66]
39 min | CC(C)(CCc1ccc(O)c(OC(F)(F)F)c1)N1Cc2cccc(S(C)(=O)=O)c2C1 [compound 67]
75 min | CC(C)Oc1cc(CC[C@@H](C)N2Cc3ccc(S(C)(=O)=O)cc3C2)ccc1O [compound 69]
79 min | CC(C)Oc1cc(CCC(C)(C)N2Cc3ccc(S(C)(=O)=O)cc3C2)ccc1O [compound 70]
45 min | COc1cc(CCC(C)(C)N2Cc3cccc(C(=O)N4CCOCC4)c3C2)ccc1O [compound 80]
88 min | COc1cc(CCC(C)(C)N2Cc3cccc(C(=O)N(C)CCN(C)C)c3C2)ccc1O [compound 81]
27 min | COc1cc(CCC(C)(C)N2Cc3cccc(C(=O)N4CCN(C)CC4)c3C2)ccc1O [compound 82]
163 min | COCCNC(=O)c1cccc2c1CN(C(C)(C)CCc1ccc(O)c(OC)c1)C2 [compound 84]
194 min | COc1cc(CCC(C)(C)N2Cc3cccc(C(=O)N(C)CCO)c3C2)ccc1O [compound 85]
19 min | COCCN(C)C(=O)c1cccc2c1CN(C(C)(C)CCc1ccc(O)c(OC)c1)C2 [compound 86]
86 min | CC(C)COc1cc(CCC(C)(C)N2Cc3ccc(S(C)(=O)=O)cc3C2)ccc1O [compound 87]

SMILES | Mouse liver microsomes, MLM t½
COc1cc(CCC(C)(C)N2Cc3ccc(F)cc3C2)ccc1OC(=O)N(C)C [compound 50] | 33 min

Test system: neuronal cultures
Experiment: Functional neuronal phenotype in neuronal cultures
Type: cell-based
Set-up: key: Antagonist: antagonists (block Abeta signaling); Agonist: agonists (block Abeta signaling with U-shaped dose-response curve and toxicity at high doses); Inactive: inactive (no effect in neuronal cultures)
Settings: not given

SMILES | neuronal phenotype
COc1cc(CCC(C)(C)N2Cc3cccc(F)c3C2)ccc1OCCO [compound 44] | Antagonist
COC[C@H](CCc1ccc(Cl)c(Cl)c1)N1Cc2ccc(F)cc2C1 [compound 46] | Inactive
COc1cc(CCC(C)(C)N2Cc3ccc(F)cc3C2)ccc1OC(=O)N(C)C [compound 50] | weak and antagonist
COc1cc(CC[C@@H](C)N2Cc3cccc(F)c3C2)ccc1OCCO [compound 51] | Neuroactive
CN(C)C(=O)c1cccc2c1CN(C(C)(C)CCc1ccc(O)c(OC(C)(C)C)c1)C2 [compound 59] | Inactive
C[C@H](CCc1ccc(O)c(OC(C)(C)C)c1)N1Cc2ccc(S(C)(=O)=O)cc2C1 [compound 63] | Inactive
COc1cc(CCC(C)(C)N2Cc3cccc(S(C)(=O)=O)c3C2)ccc1O [compound 64] | Inactive
COc1cc(CC[C@@H](C)N2Cc3cccc(S(C)(=O)=O)c3C2)ccc1O [compound 65] | Neuroactive
CC(C)(C)Oc1cc(CCC(C)(C)N2Cc3cccc(S(C)(=O)=O)c3C2)ccc1O [compound 66] | Inactive
CC(C)(CCc1ccc(O)c(OC(F)(F)F)c1)N1Cc2cccc(S(C)(=O)=O)c2C1 [compound 67] | Antagonist
CC(C)Oc1cc(CC[C@@H](C)N2Cc3ccc(S(C)(=O)=O)cc3C2)ccc1O [compound 69] | Inactive
CC(C)Oc1cc(CCC(C)(C)N2Cc3ccc(S(C)(=O)=O)cc3C2)ccc1O [compound 70] | Inactive
COc1cc(CCC(C)(C)N2Cc3cccc(C(=O)N4CCOCC4)c3C2)ccc1O [compound 80] | Inactive
COc1cc(CCC(C)(C)N2Cc3cccc(C(=O)N(C)CCN(C)C)c3C2)ccc1O [compound 81] | Inactive
COc1cc(CCC(C)(C)N2Cc3cccc(C(=O)N4CCN(C)CC4)c3C2)ccc1O [compound 82] | Inactive

Test system: Abeta oligomer-induced membrane trafficking deficits in primary hippocampal neurons
Experiment: Membrane trafficking/exocytosis (MTT) assay
Settings: read-out: Membrane Trafficking EC50; compound dosed prior to Abeta oligomer addition

SMILES | EC50
COc1cc(CCC(C)(C)N2Cc3cccc(C(=O)N4CCOCC4)c3C2)ccc1O [compound 80] | 100 µM
COc1cc(CCC(C)(C)N2Cc3cccc(C(=O)N(C)CCN(C)C)c3C2)ccc1O [compound 81] | 100 µM
COc1cc(CCC(C)(C)N2Cc3cccc(C(=O)N4CCN(C)CC4)c3C2)ccc1O [compound 82] | 100 µM
COCCNC(=O)c1cccc2c1CN(C(C)(C)CCc1ccc(O)c(OC)c1)C2 [compound 84] | 100 µM

Target: Sigma-1 receptor
Experiment: Sigma-1 receptor competitive radioligand binding assay
Settings: read-out: Sigma-1 Receptor Affinity, Ki

Ki | SMILES
1.3 µM | COc1cc(CCC(C)(C)N2Cc3cccc(F)c3C2)ccc1OCCO [compound 44]
0.094 µM | COC[C@H](CCc1ccc(Cl)c(Cl)c1)N1Cc2ccc(F)cc2C1 [compound 46]
0.077 µM | COc1cc(CC[C@@H](C)N2Cc3cccc(F)c3C2)ccc1OCCO [compound 51]
0.36 µM | CC(C)(CCc1ccc(O)c(OC(F)(F)F)c1)N1Cc2c(F)ccc(F)c2C1 [compound 55]
10 µM | CN(C)C(=O)c1cccc2c1CN(C(C)(C)CCc1ccc(O)c(OC(C)(C)C)c1)C2 [compound 59]
0.017 µM | C[C@H](CCc1ccc(O)c(OC(C)(C)C)c1)N1Cc2ccc(S(C)(=O)=O)cc2C1 [compound 63]
0.18 µM | COc1cc(CCC(C)(C)N2Cc3cccc(S(C)(=O)=O)c3C2)ccc1O [compound 64]
1.3 µM | COc1cc(CC[C@@H](C)N2Cc3cccc(S(C)(=O)=O)c3C2)ccc1O [compound 65]
0.13 µM | CC(C)(C)Oc1cc(CCC(C)(C)N2Cc3cccc(S(C)(=O)=O)c3C2)ccc1O [compound 66]
0.055 µM | CC(C)(CCc1ccc(O)c(OC(F)(F)F)c1)N1Cc2cccc(S(C)(=O)=O)c2C1 [compound 67]
0.027 µM | CC(C)Oc1cc(CC[C@@H](C)N2Cc3ccc(S(C)(=O)=O)cc3C2)ccc1O [compound 69]
0.05 µM | CC(C)Oc1cc(CCC(C)(C)N2Cc3ccc(S(C)(=O)=O)cc3C2)ccc1O [compound 70]
10 µM | COCCNC(=O)c1cccc2c1CN(C(C)(C)CCc1ccc(O)c(OC)c1)C2 [compound 84]
10 µM | COc1cc(CCC(C)(C)N2Cc3cccc(C(=O)N(C)CCO)c3C2)ccc1O [compound 85]
10 µM | COCCN(C)C(=O)c1cccc2c1CN(C(C)(C)CCc1ccc(O)c(OC)c1)C2 [compound 86]
0.069 µM | CC(C)COc1cc(CCC(C)(C)N2Cc3ccc(S(C)(=O)=O)cc3C2)ccc1O [compound 87]

SMILES | Ki
COc1cc(CCC(C)(C)N2Cc3ccc(F)cc3C2)ccc1OC(=O)N(C)C [compound 50] | 0.75 µM

Target: Sigma-2 receptor
Experiment: Sigma-2 receptor competitive radioligand binding assay
Set-up: species or system rat
Settings: read-out: Sigma-2 Receptor Affinity, Ki
Protocol: Radioligand binding assays for Sigma-1 receptors and Sigma-2 receptors were carried out by a commercial contract research organization. For Sigma-1 binding, various concentrations of test compounds from 100 μM to 1 nM were used to displace 8 nM [^3H](+)pentazocine from endogenous receptors on Jurkat cell membranes (Ganapathy M E et al. 1991, J Pharmacol. Exp. Ther. 289:251-260). 10 μM Haloperidol was used to define non-specific binding. For Sigma-2 receptors various concentrations of test compounds from 100 μM to 1 nM were used to displace 5 nM [^3H] […] (Bowen W D, et al. 1993, Mol. Neuropharmcol 3:117-126). 10 μM Haloperidol was used to define non-specific binding. Reactions were terminated by rapid filtration through Whatman GF/C filters using a Brandel 12R cell harvester followed by two washes with ice-cold buffer. Radioactivity on the dried filter discs was measured using a liquid scintillation analyzer (Tri-Carb 2900TR; PerkinElmer Life and Analytical Sciences). The displacement curves were plotted and the Ki values of the test ligands for the receptor subtypes were determined using GraphPad Prism (GraphPad Software Inc., San Diego, Calif.). The percentage specific binding was determined by dividing the difference between total bound (disintegrations per minute) and nonspecific bound (disintegrations per minute) by the total bound (disintegrations per minute).
The affinity of candidate sigma-2 ligand compounds at sigma-1 and sigma-2 receptors was also determined by displacement of different known labeled sigma-2 or sigma-1 ligands. Filtration assays were conducted according the previously published procedure (Xu, et al., 2005). Test compounds were dissolved in N,N-Dimethylformamide (DMF), dimethyl sulfoxide (DMSO) or ethanol and then diluted in 50 mM Tris-HCl pH 7.4 buffer containing 150 mM NaCl and 100 mM EDTA. Membrane homogenates were made from guinea pig brain for sigma-1 binding assay and rat liver for sigma-2 binding assay. Membrane homogenates were diluted with 50 mM Tris-HCl buffer, pH 8.0 and incubated at 25° C. in a total volume of 150 uL in 96 well plates with the radioligand and test compounds with concentrations ranging from 0.1 nM to 10 uM. After incubation was completed, the reactions were terminated by the addition of 150 uL of ice-cold wash buffer (10 mM Tris HCl, 150 mM NaCl, pH 7.4) using a 96 channel transfer pipette (Fisher Scientific, Pittsburgh, Pa.) and the samples harvested and filtered rapidly through 96 well fiber glass filter plate (Millipore, Billerica, Mass.) that had been presoaked with 100 uL of 50 mM Tris-HCl buffer. Each filter was washed four times with 200 uL of ice-cold wash buffer (10 mM Tris-HCl, 150 mM NaCl, pH 7.4). A Wallac 1450 MicroBeta liquid scintillation counter (Perkin Elmer, Boston, Mass.) was used to quantitate the bound radioactivity.
Nonspecific binding was determined from samples that contained 10 uM of cold haloperidol.
The binding affinity, Ki values was calculated using the method of Cheng and Prusoff.

Ki | SMILES
0.14 µM | COc1cc(CCC(C)(C)N2Cc3cccc(F)c3C2)ccc1OCCO [compound 44]
0.16 µM | COC[C@H](CCc1ccc(Cl)c(Cl)c1)N1Cc2ccc(F)cc2C1 [compound 46]
0.8 µM | COc1cc(CC[C@@H](C)N2Cc3cccc(F)c3C2)ccc1OCCO [compound 51]
0.31 µM | CC(C)(CCc1ccc(O)c(OC(F)(F)F)c1)N1Cc2c(F)ccc(F)c2C1 [compound 55]
0.057 µM | CN(C)C(=O)c1cccc2c1CN(C(C)(C)CCc1ccc(O)c(OC(C)(C)C)c1)C2 [compound 59]
0.38 µM | C[C@H](CCc1ccc(O)c(OC(C)(C)C)c1)N1Cc2ccc(S(C)(=O)=O)cc2C1 [compound 63]
0.0086 µM | COc1cc(CCC(C)(C)N2Cc3cccc(S(C)(=O)=O)c3C2)ccc1O [compound 64]
0.19 µM | COc1cc(CC[C@@H](C)N2Cc3cccc(S(C)(=O)=O)c3C2)ccc1O [compound 65]
0.0026 µM | CC(C)(C)Oc1cc(CCC(C)(C)N2Cc3cccc(S(C)(=O)=O)c3C2)ccc1O [compound 66]
0.0081 µM | CC(C)(CCc1ccc(O)c(OC(F)(F)F)c1)N1Cc2cccc(S(C)(=O)=O)c2C1 [compound 67]
0.076 µM | CC(C)Oc1cc(CC[C@@H](C)N2Cc3ccc(S(C)(=O)=O)cc3C2)ccc1O [compound 69]
0.009 µM | CC(C)Oc1cc(CCC(C)(C)N2Cc3ccc(S(C)(=O)=O)cc3C2)ccc1O [compound 70]
1.4 µM | COc1cc(CCC(C)(C)N2Cc3cccc(C(=O)N4CCOCC4)c3C2)ccc1O [compound 80]
10 µM | COCCNC(=O)c1cccc2c1CN(C(C)(C)CCc1ccc(O)c(OC)c1)C2 [compound 84]
0.36 µM | COc1cc(CCC(C)(C)N2Cc3cccc(C(=O)N(C)CCO)c3C2)ccc1O [compound 85]
10 µM | COCCN(C)C(=O)c1cccc2c1CN(C(C)(C)CCc1ccc(O)c(OC)c1)C2 [compound 86]
0.0011 µM | CC(C)COc1cc(CCC(C)(C)N2Cc3ccc(S(C)(=O)=O)cc3C2)ccc1O [compound 87]

SMILES | Ki
COc1cc(CCC(C)(C)N2Cc3ccc(F)cc3C2)ccc1OC(=O)N(C)C [compound 50] | 0.037 µM

Target: potassium channel hERG (Homo sapiens (Human), UniProt Q12809)
Experiment: In vitro toxicity, hERG inhibition
Type: biochemical
Settings: not given

Chain of potassium channel hERG (Q12809 whole entry): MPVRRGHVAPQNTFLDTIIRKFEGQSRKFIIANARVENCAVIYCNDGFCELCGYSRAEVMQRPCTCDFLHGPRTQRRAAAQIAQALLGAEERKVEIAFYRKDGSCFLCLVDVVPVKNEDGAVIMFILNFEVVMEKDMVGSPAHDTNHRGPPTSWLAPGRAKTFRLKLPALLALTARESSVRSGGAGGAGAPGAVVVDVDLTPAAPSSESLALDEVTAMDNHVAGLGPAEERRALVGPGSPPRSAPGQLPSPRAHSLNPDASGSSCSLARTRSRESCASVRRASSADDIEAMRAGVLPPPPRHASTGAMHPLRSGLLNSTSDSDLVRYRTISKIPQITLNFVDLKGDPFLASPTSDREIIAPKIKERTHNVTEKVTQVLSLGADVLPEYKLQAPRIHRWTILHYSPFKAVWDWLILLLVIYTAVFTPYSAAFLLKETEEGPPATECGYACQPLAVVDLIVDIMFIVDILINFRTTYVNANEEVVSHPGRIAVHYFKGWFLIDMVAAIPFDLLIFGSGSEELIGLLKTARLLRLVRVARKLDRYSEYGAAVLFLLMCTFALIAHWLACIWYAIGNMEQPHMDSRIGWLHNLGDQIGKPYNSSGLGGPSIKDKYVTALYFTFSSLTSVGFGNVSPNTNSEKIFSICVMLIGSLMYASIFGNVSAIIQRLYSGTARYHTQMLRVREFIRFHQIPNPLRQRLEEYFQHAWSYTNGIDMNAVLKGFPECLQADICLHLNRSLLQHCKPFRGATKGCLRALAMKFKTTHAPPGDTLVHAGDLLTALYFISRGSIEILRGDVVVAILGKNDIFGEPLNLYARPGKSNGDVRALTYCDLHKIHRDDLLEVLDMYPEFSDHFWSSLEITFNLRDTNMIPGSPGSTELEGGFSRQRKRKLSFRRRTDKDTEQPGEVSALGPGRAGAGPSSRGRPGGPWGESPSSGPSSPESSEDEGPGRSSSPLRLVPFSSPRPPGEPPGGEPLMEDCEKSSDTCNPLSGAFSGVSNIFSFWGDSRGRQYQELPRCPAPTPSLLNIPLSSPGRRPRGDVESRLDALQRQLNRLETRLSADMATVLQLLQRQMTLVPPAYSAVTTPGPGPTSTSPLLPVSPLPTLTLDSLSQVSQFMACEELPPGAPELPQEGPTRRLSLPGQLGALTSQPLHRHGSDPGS

SMILES | IC50
COc1cc(CCC(C)(C)N2Cc3cccc(F)c3C2)ccc1OCCO [compound 44] | 0.099 µM
COC[C@H](CCc1ccc(Cl)c(Cl)c1)N1Cc2ccc(F)cc2C1 [compound 46] | 1.6 µM
COc1cc(CCC(C)(C)N2Cc3ccc(F)cc3C2)ccc1OC(=O)N(C)C [compound 50] | 4.4 µM
COc1cc(CC[C@@H](C)N2Cc3cccc(F)c3C2)ccc1OCCO [compound 51] | 1.2 µM
CC(C)(CCc1ccc(O)c(OC(F)(F)F)c1)N1Cc2c(F)ccc(F)c2C1 [compound 55] | 100 µM
CN(C)C(=O)c1cccc2c1CN(C(C)(C)CCc1ccc(O)c(OC(C)(C)C)c1)C2 [compound 59] | 18 µM
C[C@H](CCc1ccc(O)c(OC(C)(C)C)c1)N1Cc2ccc(S(C)(=O)=O)cc2C1 [compound 63] | 11 µM
COc1cc(CCC(C)(C)N2Cc3cccc(S(C)(=O)=O)c3C2)ccc1O [compound 64] | 20 µM
COc1cc(CC[C@@H](C)N2Cc3cccc(S(C)(=O)=O)c3C2)ccc1O [compound 65] | 26 µM
CC(C)(C)Oc1cc(CCC(C)(C)N2Cc3cccc(S(C)(=O)=O)c3C2)ccc1O [compound 66] | 19 µM
CC(C)(CCc1ccc(O)c(OC(F)(F)F)c1)N1Cc2cccc(S(C)(=O)=O)c2C1 [compound 67] | 44 µM
CC(C)Oc1cc(CC[C@@H](C)N2Cc3ccc(S(C)(=O)=O)cc3C2)ccc1O [compound 69] | 9.5 µM
CC(C)Oc1cc(CCC(C)(C)N2Cc3ccc(S(C)(=O)=O)cc3C2)ccc1O [compound 70] | 3.1 µM
COc1cc(CCC(C)(C)N2Cc3cccc(C(=O)N4CCOCC4)c3C2)ccc1O [compound 80] | 7.4 µM
COc1cc(CCC(C)(C)N2Cc3cccc(C(=O)N(C)CCN(C)C)c3C2)ccc1O [compound 81] | 10 µM
COc1cc(CCC(C)(C)N2Cc3cccc(C(=O)N4CCN(C)CC4)c3C2)ccc1O [compound 82] | 52 µM
COCCNC(=O)c1cccc2c1CN(C(C)(C)CCc1ccc(O)c(OC)c1)C2 [compound 84] | 6.6 µM
COc1cc(CCC(C)(C)N2Cc3cccc(C(=O)N(C)CCO)c3C2)ccc1O [compound 85] | 33 µM
COCCN(C)C(=O)c1cccc2c1CN(C(C)(C)CCc1ccc(O)c(OC)c1)C2 [compound 86] | 5.1 µM
CC(C)COc1cc(CCC(C)(C)N2Cc3ccc(S(C)(=O)=O)cc3C2)ccc1O [compound 87] | 0.57 µM
